Results on 24 molecules are retold here after patent US20120157439A1, “RAF INHIBITOR COMPOUNDS AND METHODS OF USE THEREOF” (GENENTECH, INC., priority 2009, published 2012).

In general, IC50 refers to the midpoint of a concentration-inhibition curve.

Molecules are shown by their SMILES. Like-named read-outs stand apart in the source and are kept apart here. Bounds are passed on as bounds.

The target in the test is T1, V600E full-length B-Raf (Homo sapiens, UniProt P15056, V600E).
T1 construct: 1 μM FSBA-MEK and 20 nM V600E full-length B-Raf; made in house; host or cells: sf9 insect cells (baculovirus)
T1 sequence (P15056 whole entry V600E): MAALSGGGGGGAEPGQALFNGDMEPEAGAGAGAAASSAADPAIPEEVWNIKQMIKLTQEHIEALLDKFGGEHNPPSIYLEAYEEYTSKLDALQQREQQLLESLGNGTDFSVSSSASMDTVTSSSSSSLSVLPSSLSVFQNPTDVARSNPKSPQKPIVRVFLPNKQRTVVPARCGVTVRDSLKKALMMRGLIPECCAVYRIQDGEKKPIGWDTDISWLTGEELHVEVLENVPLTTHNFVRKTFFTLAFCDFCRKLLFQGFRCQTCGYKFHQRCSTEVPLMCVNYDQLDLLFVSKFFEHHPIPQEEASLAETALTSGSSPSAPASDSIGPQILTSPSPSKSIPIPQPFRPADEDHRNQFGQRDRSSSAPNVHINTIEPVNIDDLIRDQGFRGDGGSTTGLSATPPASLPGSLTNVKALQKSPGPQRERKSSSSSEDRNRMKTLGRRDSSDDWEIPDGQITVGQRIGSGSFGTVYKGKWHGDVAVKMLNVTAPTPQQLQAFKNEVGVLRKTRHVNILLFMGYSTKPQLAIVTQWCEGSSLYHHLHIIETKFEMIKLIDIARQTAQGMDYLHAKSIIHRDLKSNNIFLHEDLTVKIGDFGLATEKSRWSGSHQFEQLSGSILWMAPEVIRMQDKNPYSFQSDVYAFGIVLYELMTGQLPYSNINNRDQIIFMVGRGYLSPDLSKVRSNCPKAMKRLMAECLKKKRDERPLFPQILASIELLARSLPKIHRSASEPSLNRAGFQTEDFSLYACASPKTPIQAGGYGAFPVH
Put plainly: B-Raf IC50 Assay (B-RAF V600E inhibition assay, Example A). The format is biochemical. The gist of the method:
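Full-length V600E B-Raf (20 nM, from Sf9 baculovirus) was preincubated 15 min with 1 μM FSBA-modified wild-type MEK in pH 7.2 Pipes/KCl/MgCl2 buffer, then started with 4 μM ATP plus [γ-33P]ATP. After 60 min at 22 °C, TCA-quenched product was filter-captured and 33P incorporation counted by scintillation.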

Where [1] appears, read: B-Raf V600E assay of Example A: less than 100 nM, read-out: IC50.
[2] abbreviates: B-Raf V600E assay of Example A: less than about 1 μM, read-out: IC50.
[3] abbreviates: incorporation of radio labeled phosphate from [γ-33P]ATP into FSBA-modified wild-type MEK, 4 μM ATP, 20 nM V600E full-length B-Raf, 60-minute incubation, 22° C., read-out: BRAF V600E IC50.

As for `CC(C)CS(=O)(=O)Nc1ccc(F)c(NC(=O)c2csc3c(N)ncnc23)c1Cl` [Example 8, 4-Amino-thieno[3,2-d]pyrimidine-7-carboxylic acid[2-chloro-6-fluoro-3-(2-methyl-propane-1-sulfonylamino)-phenyl]-amide], the IC50 under setting [1] was below 100 nM, the IC50 under setting [2] is below 1000 nM and the IC50 under setting [3] worked out at 0.6 nM.

Take `CCCS(=O)(=O)Nc1ccc(Cl)c(NC(=O)c2csc3cncnc23)c1Cl` [Example 107, Thieno[3,2-d]pyrimidine-7-carboxylic acid [2,6-dichloro-3-(propane-1-sulfonylamino)-phenyl]-amide]: the IC50 is below 100 nM under setting [1], below 1000 nM under setting [2] and 9.6 nM under setting [3].

For the molecule `CCCS(=O)(=O)Nc1ccc(Cl)c(NC(=O)c2csc3c(NC4COC4)ncnc23)c1Cl` [Example 68, 4-(Oxetan-3-ylamino)-thieno[3,2-d] pyrimidine-7-carboxylic acid [2,6-dichloro-3-(propane-1-sulfonyl-amino)-phenyl]-amide], the 50% inhibitory concentration (IC50) reads like this: under setting [1], below 100 nM; under setting [2], below 1000 nM; under setting [3], 1.8 nM.

With `CCCS(=O)(=O)Nc1cc(F)c(F)c(NC(=O)c2csc3c(NN4CCOCC4)ncnc23)c1F` [Example 95, 4-(Morpholin-4-ylamino)-thieno[3,2-d] pyrimidine-7-carboxylic acid [2,3,6-trifluoro-5-(propane-1-sulfonyl-amino)-phenyl]-amide], the IC50 reads like this: under setting [1], below 100 nM; under setting [2], below 1000 nM; under setting [3], 5.09 nM.

On to `CCCS(=O)(=O)Nc1cc(F)c(F)c(NC(=O)c2csc3c(NC4CCOC4)ncnc23)c1F` (centres unmarked) [Example 88, 4-(Tetrahydro-furan-3-ylamino)-thieno[3,2-d] pyrimidine-7-carboxylic acid [2,3,6-trifluoro-5-(propane-1-sulfonyl-amino)-phenyl]-amide], for which the IC50 runs as follows: under setting [2], below 1000 nM; under setting [3], 120 nM.

On to `CCCS(=O)(=O)Nc1ccc(Cl)c(NC(=O)c2csc3c(NCC)ncnc23)c1Cl` [Example 76, 4-Ethylamino-thieno[3,2-d] pyrimidine-7-carboxylic acid [2,6-dichloro-3-(propane-1-sulfonyl-amino)-phenyl]-amide], for which the IC50 runs as follows: under setting [1], below 100 nM; under setting [2], below 1000 nM; under setting [3], 0.6 nM.

Take `CN(C)S(=O)(=O)Nc1ccc(F)c(NC(=O)c2csc3c(N)ncnc23)c1F` [Example 29, 4-Amino-N-(3-(N,N-dimethylsulfamoylamino)-2,6-difluorophenyl)thieno[3,2-d]pyrimidine-7-carboxamide]: the IC50 is below 100 nM under setting [1], below 1000 nM under setting [2] and 88 nM under setting [3].

Take `CCCS(=O)(=O)Nc1ccc(F)c(NC(=O)c2sc(C)c3c(N)ncnc23)c1F` [Example 99, 4-Amino-5-methyl-thieno[3,4-a]pyrimidine-7-carboxylic acid [2,6-difluoro-3-(propane-1-sulfonylamino)-phenyl]-amide]: the IC50 reads like this: under setting [1], below 100 nM; under setting [2], below 1000 nM; under setting [3], 3 nM.

As for `CCCS(=O)(=O)Nc1ccc(F)c(NC(=O)c2csc3c(N)ncnc23)c1` [Example 27, 4-Amino-thieno[3,2-d]pyrimidine-7-carboxylic acid[2-fluoro-5-(propane-1-sulfonylamino)-phenyl]-amide], the IC50 is below 1000 nM under setting [2] and 125 nM under setting [3].

As for `CCCS(=O)(=O)Nc1ccc(Cl)c(NC(=O)c2csc3c(NCC(F)(F)F)ncnc23)c1Cl` [Example 78, 4-(2,2,2-Trifluoro-ethylamino)-thieno[3,2-d] pyrimidine-7-carboxylic acid [2,6-dichloro-3-(propane-1-sulfonyl-amino)-phenyl]-amide], the IC50 is below 100 nM under setting [1], below 1000 nM under setting [2] and 11.7 nM under setting [3].

For `Nc1ncnc2c(C(=O)Nc3c(Cl)ccc(NS(=O)(=O)CCCF)c3F)csc12` [Example 13, 4-Amino-thieno[3,2-d]pyrimidine-7-carboxylic acid[6-chloro-2-fluoro-3-(3-fluoro-propane-1-sulfonylamino)-phenyl]-amide], the half-inhibitory concentration (IC50) under setting [1] was below 100 nM, the IC50 under setting [2] is below 1000 nM and the IC50 under setting [3] was determined as 0.1 nM.

Turning to `CCCS(=O)(=O)Nc1ccc(F)c(NC(=O)c2snc3c(NCC)ncnc23)c1F` [Example 35, 7-Ethylamino-isothiazolo[4,3-d]pyrimidine-3-carboxylic acid [2,6-difluoro-3-(propane-1-sulfonylamino)-phenyl]-amide], the IC50 is, setting by setting: under setting [2], below 1000 nM; under setting [3], 105 nM.

`CCCS(=O)(=O)Nc1cc(Cl)cc(NC(=O)c2csc3c(N)ncnc23)c1F` [Example 21, 4-Amino-thieno[3,2-d] pyrimidine-7-carboxylic acid [5-chloro-2-fluoro-3-(propane-1-sulfonyl-amino)-phenyl]-amide]: the concentration for half-maximal inhibition (IC50) was below 100 nM under setting [1], below 1000 nM under setting [2] and 47.1 nM under setting [3].

Consider `CCCS(=O)(=O)Nc1ccc(F)c(NC(=O)c2csc3c(Nc4ccccc4)ncnc23)c1F` [Example 63, 4-Phenylamino-thieno[3,2-d]pyrimidine-7-carboxylic acid [2,6-difluoro-3-(propane-1-sulfonylamino)-phenyl]-amide], for which the IC50 runs as follows: under setting [1], below 100 nM; under setting [2], below 1000 nM; under setting [3], 35.4 nM.

Consider `O=C(Nc1c(F)ccc(NS(=O)(=O)CCCF)c1F)c1csc2cncnc12` [Example 109, Thieno[3,2-d]pyrimidine-7-carboxylic acid [2,6-difluoro-3-(3-fluoro-propane-1-sulfonyl-amino)-phenyl]-amide], for which the IC50 by setting is: under setting [1], below 100 nM; under setting [2], below 1000 nM; under setting [3], 40.3 nM.

As for `CCCS(=O)(=O)Nc1ccc(F)c(NC(=O)c2csc3c(NOC)ncnc23)c1Cl` [Example 37, 4-Methoxyamino-thieno[3,2-d]pyrimidine-7-carboxylic acid [2-chloro-6-fluoro-3-(propane-1-sulfonylamino)-phenyl]-amide], the IC50 by setting is: under setting [1], below 100 nM; under setting [2], below 1000 nM; under setting [3], 9.2 nM.

As to `Cc1ncnc2c(C(=O)Nc3c(Cl)ccc(NS(=O)(=O)CCCF)c3Cl)csc12` [Example 39, 4-Methyl-thieno[3,2-d]pyrimidine-7-carboxylic acid [2,6-dichloro-3-(3-fluoro-propane-1-sulfonylamino)-phenyl]-amide], the IC50 is, setting by setting: under setting [1], below 100 nM; under setting [2], below 1000 nM; under setting [3], 1.11 nM.

Regarding `CCCS(=O)(=O)Nc1ccc(F)c(NC(=O)c2csc3c(NCC(C)C)ncnc23)c1F` [Example 57, 4-Isobutylamino-thieno[3,2-d] pyrimidine-7-carboxylic acid [2,6-difluoro-3-(propane-1-sulfonylamino)-phenyl]-amide], the IC50 is below 100 nM under setting [1], below 1000 nM under setting [2] and 12.8 nM under setting [3].

`CCCS(=O)(=O)Nc1ccc(F)c(NC(=O)c2csc3c(NC)ncnc23)c1F` [Example 46, 4-Methylamino-thieno[3,2-d]pyrimidine-7-carboxylic acid [2,6-difluoro-3-(propane-1-sulfonylamino)-phenyl]-amide]: the IC50 runs as follows: under setting [1], below 100 nM; under setting [2], below 1000 nM; under setting [3], 49.6 nM.

Take `CCCS(=O)(=O)Nc1ccc(Cl)c(NC(=O)c2csc3c(N)ncnc23)c1F` [Example 7, 4-Amino-thieno[3,2-d] pyrimidine-7-carboxylic acid [6-chloro-2-fluoro-3-(propane-1-sulfonyl-amino)-phenyl]-amide]: the IC50 reads like this: under setting [1], below 100 nM; under setting [2], below 1000 nM; under setting [3], 1.01 nM.

`Nc1ncnc2c(C(=O)Nc3c(F)ccc(NS(=O)(=O)CC4CC4)c3F)csc12` [Example 18, 4-Amino-thieno[3,2-d] pyrimidine-7-carboxylic acid (3-cyclopropyl-methanesulfonyl-amino-2,6-di-fluoro-phenyl)-amide]: the IC50 was below 100 nM under setting [1], below 1000 nM under setting [2] and 7.4 nM under setting [3].

In the case of `CCCC(C)Nc1ncnc2c(C(=O)Nc3c(F)ccc(NS(=O)(=O)CCC)c3F)csc12` (centres unmarked) [Example 51, 4-(1-Methyl-butylamino)-thieno[3,2-d] pyrimidine-7-carboxylic acid [2,6-difluoro-3-(propane-1-sulfonylamino)-phenyl]-amide], the half-inhibitory concentration (IC50) under setting [2] is below 1000 nM and the IC50 under setting [3] came to 221 nM.

In the case of `CCCS(=O)(=O)Nc1ccc(F)c(NC(=O)c2csc3c(NC(C)C)ncnc23)c1F` [Example 50, 4-Isopropyl-amino-thieno [3,2-d] pyrimidine-7-carboxylic acid [2,6-difluoro-3-(propane-1-sulfonylamino)-phenyl]-amide], the IC50 under setting [1] was below 100 nM, the half-maximal inhibitory concentration (IC50) under setting [2] is below 1000 nM and the IC50 under setting [3] was 36.5 nM.

Regarding `CCCS(=O)(=O)Nc1cc(F)cc(NC(=O)c2csc3c(N)ncnc23)c1F` [Example 20, 4-Amino-thieno[3,2-d] pyrimidine-7-carboxylic acid [2,5-difluoro-3-(propane-1-sulfonyl-amino)-phenyl]-amide], the IC50 was below 100 nM under setting [1], below 1000 nM under setting [2] and 5.7 nM under setting [3].
